Measurements as given in ChEMBL document CHEMBL5528001, “Synthetic product-based approach toward potential antileishmanial drug development” (Eur J Med Chem, 2024).
pEC50, pIC50: −log10 of the molar value. Values after ≈ are worked out from the molar mass of the structure shown. One block for each molecule: values may come before it.

What was measured:
Leishmania donovani [1] = experiment: Antileishmanial activity against Leishmania donovani promastigotes assessed as parasitic proliferation inhibition incubated for 3 days by resazurin dye based assay; type: functional, organism-based
Leishmania amazonensis [2] = experiment: Antileishmanial activity against Leishmania amazonensis IFLA/BR/1967/PH8 amastigotes infected in murine peritoneal macrophages incubated for 24 hrs by Giemsa staining based analysis; type: functional, organism-based; conditions: IFLA/BR/1967/PH8, 24 h
Leishmania donovani [3] = experiment: Antileishmanial activity against Leishmania donovani amastigotes infected in human THP-1 cells assessed as inhibition of parasite infection incubated for 72 hrs by DAPI staining based assay; type: functional, organism-based; conditions: THP-1, 72 h
Leishmania donovani [4] = experiment: Antileishmanial activity against Leishmania donovani amastigotes infected in J774.A1 macrophage assessed as inhibition of parasite growth by luciferase assay; type: functional, organism-based
Leishmania donovani [5] = experiment: Antileishmanial activity against Leishmania donovani promastigotes assessed as inhibition of parasite growth; type: functional, organism-based
Leishmania aethiopica = experiment: Antileishmanial activity against Leishmania aethiopica amastigotes assessed as inhibition of parasite growth measured after 24 hrs by Alamar blue based analysis; type: functional, organism-based
HepG2 [6] = experiment: Antiproliferative activity against human HepG2 cells assessed as reduction in cell viability incubated for 72 hrs by MTT assay; type: functional, cell-based; conditions: HepG2, 72 h
Leishmania donovani [7] = experiment: Antileishmanial activity against Leishmania donovani promastigotes assessed as parasite growth inhibition incubated for 72 hrs by alamar blue staining based assay; type: functional, organism-based
Leishmania braziliensis = experiment: Antileishmanial activity against Leishmania braziliensis MHOM/BR/75/M2903 strain promastigotes assessed as reduction in cell viability incubated for 48 hrs by MTT assay; type: functional, organism-based; conditions: MHOM/BR/75/M2903, 48 h
[8] = Selectivity index, ratio of CC50 for human HepG2 cells to EC50 for GFP-expressing Leishmania infantum intracellular amastigotes infected in human THP-1 derived macrophage cells; type: toxicity, cell-based; conditions: read-out: Ratio CC50/EC50
Leishmania tropica = experiment: Antileishmanial activity against Leishmania tropica promastigotes incubated for 24 hrs measured by alamar blue staining based fluorescence analysis; type: functional, organism-based
Leishmania major [9] = experiment: Antileishmanial activity against Leishmania major assessed as reduction in parasite growth; type: functional, organism-based
[10] = Cytotoxicity against HEK293 cells assessed as reduction in cell viability incubated for 6 days by CellTiter-Glo luminescent cell viability assay; type: toxicity, cell-based; conditions: human
Leishmania donovani [11] = experiment: Antileishmanial activity against Leishmania donovani amastigotes assessed as parasite growth inhibition incubated for 72 hrs by MTS assay; type: functional, organism-based
Leishmania donovani [12] = experiment: Antileishmanial activity against Leishmania donovani amastigotes; type: functional, organism-based
Leishmania infantum [13] = experiment: Antileishmanial activity against Leishmania infantum promastigote assessed as reduction in parasite growth after 72 hrs by MTT assay; type: functional, organism-based
J774.A1 = experiment: Cytotoxicity against mouse J774.A1 cells assessed as reduction in cell viability incubated for 72 hrs by MTT assay; type: functional
Leishmania major [14] = experiment: Antileishmanial activity against Leishmania major promastigotes assessed as reduction in parasite viability measured after 72 hrs by Giemsa-staining based microscopic analysis; type: functional, organism-based
Leishmania major [15] = experiment: Antileishmanial activity against Leishmania major amastigotes assessed as reduction in parasite viability measured for 72 hrs by Giemsa-staining based microscopic analysis; type: functional, organism-based
HepG2 [16] = experiment: Cytotoxicity against human HepG2 cells assessed as reduction in cell growth measured after 48 hrs by SRB assay; type: functional
Leishmania donovani [17] = experiment: Antileishmanial activity against Leishmania donovani MHOM/IN/00/DEVI assessed as inhibition of parasite growth measured for 48 hrs by MTT assay; type: functional, organism-based
Leishmania infantum [18] = experiment: Antileishmanial activity against Leishmania infantum MON-1 promastigotes assessed as reduction in parasite viability measured after 48 hrs by MTT assay; type: functional, organism-based; conditions: MON-1, 48 h
Leishmania donovani [19] = experiment: Antileishmanial activity against Leishmania donovani MHOM/SD/62/1S assessed as inhibition of parasite growth by resazurin/alamar blue fluorometric assay; type: functional, organism-based
Leishmania major [20] = experiment: Antileishmanial activity against Leishmania major IR-173 promastigotes assessed as inhibition of parasite growth incubated for 48 hrs by resazurin dye based assay; type: functional, organism-based; conditions: IR-173, 48 h
Leishmania donovani [21] = experiment: Antileishmanial activity against Leishmania donovani 9515 promastigotes assessed as inhibition of parasite growth incubated for 48 hrs by resazurin dye based assay; type: functional, organism-based; conditions: Leishmania donovani, 9515, 48 h
Leishmania amazonensis [22] = experiment: Antileishmanial activity against Leishmania amazonensis MHOM/BR/75/Josefa promastigotes assessed as reduction in parasite viability after 72 hrs by Neubauer chamber counting method; type: functional, organism-based
Leishmania donovani [23] = experiment: Antileishmanial activity against Leishmania donovani MHOM/SD/62/1S-CL2D promastigotes assessed as reduction in parasite growth incubated for 24 hrs by resazurin dye based analysis; type: functional, organism-based
Leishmania major [24] = experiment: Antileishmanial activity against Leishmania major amastigotes assessed as reduction in parasite growth incubated for 48 hrs by resazurin dye based analysis; type: functional, organism-based
Leishmania mexicana = experiment: Antileishmanial activity against Leishmania mexicana promastigotes; type: functional, organism-based

SMILES: CCOC(=O)C1=CNC(=O)NC1c1ccc(C)cc1 (stereo in doubt; 80)
IC50 (Leishmania donovani [1]; Leishmania donovani, 72 h, read-out: IC50): 29.3 mg/L (≈ 113 µM)

pIC50 (Leishmania amazonensis [2]): 4.97
SMILES: O=C(C[Se]CC(=O)Nc1ccc([N+](=O)[O-])cc1)Nc1ccc([N+](=O)[O-])cc1

pIC50 (Leishmania donovani [3]): 6.00
SMILES: CC(=O)N1N=C(c2ccccc2)CC1c1cn(-c2ccc(C)cc2)nc1-c1ccccc1 (stereo not given)
pIC50 (Leishmania donovani [4]): 7.30

SMILES: Cc1cc(O)c(C(=O)Nc2ccc(Br)cc2)c(=O)n1C1CC1
pIC50 (Leishmania donovani [5]): 4.26

SMILES: Cc1ccc(-n2cc(C3N[C@H](C(N)=O)CS3)c(-c3ccccc3)n2)cc1 (stereo not given in full)
IC50 (Leishmania aethiopica): 1.02 mg/L (≈ 2.8 µM)

pEC50 (HepG2 [6]): > 4.52
SMILES: Cc1cc(C)cc(-n2cc(CNC(=O)c3c(C)nc4c5ccccc5c5ccccc5n34)nn2)c1

SMILES: CN(C)CCCNC(=O)c1ccc2cc(Cl)ccc2n1
pIC50 (Leishmania donovani [7]): 5.23

SMILES: COc1ccc(-n2cc(CCC(=O)OC3=C(C=C(C)C)C(=O)c4ccccc4C3=O)nn2)cc1
pIC50 (Leishmania braziliensis): 4.80

SMILES: c1ccc(-c2nn(-c3ccccc3)cc2C2=NCCS2)cc1
IC50 (Leishmania aethiopica): 1.02 mg/L (≈ 3.34 µM)

SMILES: Nc1ccn(C(=O)C2CCC3(CC2)OOC2(O3)C3CC4CC(C3)CC2C4)n1 (stereo not given)
selectivity ratio [8]: < 5
pIC50 (Leishmania tropica): 3.79

SMILES: Cc1nc2ccc(Cl)cn2c1C(=O)N1CCN(Cc2cn(-c3ccc(Br)cc3)nn2)CC1
pIC50 (Leishmania major [9]): 4.82

pIC50 (Leishmania donovani [12]): 6.42
SMILES: CCCCCCCn1cc(CN2C(=O)CN(/N=C/c3ccc([N+](=O)[O-])o3)C2=O)nn1
IC50 at 6 days [10]: > 100 µM
pIC50 (Leishmania donovani [11]): 6.74

SMILES: CC1(C)CC(=O)c2cc(CNC(=O)CCCCCCCCBr)ccc2S1
pIC50 (Leishmania infantum [13]): 5.14
CC50 (J774.A1): 58 µM

SMILES: Cc1cc(O)c(C(=O)Nc2ccccc2)c(=O)n1Cc1cccc(Cl)c1Cl
pIC50 (Leishmania donovani [5]): 4.26

SMILES: CCOC(=O)C1=C(C)NC(C)=C(C(=O)OCC)C1c1cccc(Cl)c1
pEC50 (Leishmania major [14]): 4.98
pEC50 (Leishmania major [15]): 5.66

SMILES: C(=N/CCCN(N1CCOCC1)N1CCOCC1)/c1cc(-c2ccccc2)c2ccc3c(-c4ccccc4)cc(/C=N/CCCN(N4CCOCC4)N4CCOCC4)nc3c2n1
CC50 (HepG2 [16]): 1.64 µM
pIC50 (Leishmania donovani [17]): 5.60

SMILES: CCOC(=O)c1cc2c([nH]c3ccccc32)c(-c2ccccn2)n1
pEC50 (Leishmania infantum [18]): < 4.53

pIC50 (Leishmania donovani [3]): 6.06
SMILES: O=C(c1ccccc1)N1N=C(c2ccccc2)CC1c1cn(-c2ccc(Cl)cc2)nc1-c1ccccc1 (stereo not given)
pIC50 (Leishmania donovani [4]): 7.10

SMILES: COC(=O)C1=C(C)NC(C)=C(C(=O)OC)C1c1cccc(Cl)c1
pEC50 (Leishmania major [15]): 5.27

SMILES: O=C(N/N=C/c1ccc([N+](=O)[O-])o1)c1ccc(OCc2ccccc2)cc1
pIC50 (Leishmania donovani [19]): 5.34
pIC50 (Leishmania major [20]): 4.41
pIC50 (Leishmania donovani [21]): 5.35

SMILES: CC(C)=CC1=C(OC(=O)CCc2cn(-c3cccc(Cl)c3)nn2)C(=O)c2ccccc2C1=O
pIC50 (Leishmania braziliensis): 4.78

SMILES: CN(C)c1ccc(-c2nc(C(=O)NCCCl)cc3c2[nH]c2ccccc23)cc1
pIC50 (Leishmania amazonensis [22]): 4.77

SMILES: Cc1cc(O)c(C(=O)Nc2ccccc2)c(=O)n1Cc1ccc(Cl)cc1
pIC50 (Leishmania donovani [5]): 4.26

SMILES: CCOC(=O)C1=CNC(=O)NC1c1ccc(C)cc1 (stereo in doubt; 82)
IC50 (Leishmania donovani [1]): 28.3 mg/L (≈ 109 µM)

SMILES: CCCCCCCCCCCCCCCC(=O)CC(=O)N1CCC[C@H]1COP(=O)([O-])OCC[N+](C)(C)C
pIC50 (Leishmania donovani [23]): 4.28

SMILES: CC(C)c1ccc(COc2ccc(C(=O)N/N=C\c3ccc([N+](=O)[O-])o3)cc2)cc1
pIC50 (Leishmania major [24]): 6.21

SMILES: CC(C)(C)c1ccc(COc2ccc(C(=O)N/N=C\c3ccc([N+](=O)[O-])o3)cc2)cc1
pIC50 (Leishmania major [24]): 6.72

pIC50 (Leishmania mexicana): 5.34
SMILES: COc1cc(C(=O)/C=C/c2cccc([N+](=O)[O-])c2)ccc1OCC=C(C)C

SMILES: CCc1ccc(-n2cc(CN3CCN(C(=O)c4c(C)nc5ccc(Cl)cn45)CC3)nn2)cc1
pIC50 (Leishmania major [9]): 4.82

pIC50 (Leishmania amazonensis [2]): 5.25
SMILES: O=C(CC[Se]c1ccnc2cc(Cl)ccc12)Nc1ccc([N+](=O)[O-])cc1
